# Data published in ChEMBL document CHEMBL4813910, “Curse or Cure? A Perspective on the Developability of Aldehydes as Active Pharmaceutical Ingredients” (J Med Chem, 2020).
# What was measured:
# [1] = AUC (0 to infinity) in human at 20 mg/kg, po measured up to 30 hrs by HPLC method; format: ADME, organism-based; parameters: route oral, dose 20 mg/kg, time <=30; conditions: in vivo
# [2] = AUC (0 to infinity) in human at 20 mg, po measured up to 240 hrs by HPLC method; format: ADME, organism-based; parameters: route oral, dose 20 mg, time <=240; conditions: in vivo
# [3] = Clearance in human at 40 mg, po BID cotreated with paclitaxel by HPLC method; format: ADME, organism-based; conditions: in vivo
# [4] = Tmax in human at 20 mg, po measured up to 240 hrs by HPLC method; format: ADME, organism-based; conditions: in vivo
# [5] = Half life in mouse plasma at 5 ug/ml incubated for 1 to 24 hrs by LC/MS/MS method; format: ADME, cell-free; conditions: time 1-24 hrs, dose 5 µg/ml
# [6] = Tmax in human at 20 mg/kg, po measured up to 30 hrs by HPLC method; format: ADME, organism-based; conditions: in vivo
# [7] = Clearance in dog at 0.5 mg/kg, iv by HPLC method; format: ADME, organism-based, Canis lupus familiaris; conditions: in vivo
# [8] = Half life in dog plasma at 5 ug/ml incubated for 1 to 24 hrs by LC/MS/MS method; format: ADME, cell-free, Canis lupus familiaris; conditions: time 1-24 hrs, dose 5 µg/ml
# [9] = Cmax in human at 20 mg, po measured up to 240 hrs by HPLC method; format: ADME, organism-based; parameters: route oral, dose 20 mg, time <=240; conditions: in vivo
# [10] = Half life in human plasma at 5 ug/ml incubated for 1 to 24 hrs by LC/MS/MS method; format: ADME, cell-free; conditions: time 1-24 hrs, dose 5 µg/ml
# [11] = Protein binding in human plasma; format: ADME, cell-free
# [12] = Cmax in human at 20 mg/kg, po measured up to 30 hrs by HPLC method; format: ADME, organism-based; parameters: route oral, dose 20 mg/kg, time <=30; conditions: in vivo
# [13] = Half life in human at 40 mg, po BID cotreated with paclitaxel by HPLC method; format: ADME, organism-based; conditions: in vivo
# [14] = Half life in human at 20 mg/kg, po measured up to 30 hrs by HPLC method; format: ADME, organism-based; conditions: in vivo
# [15] = Cmax in human at 40 mg, po BID cotreated with paclitaxel by HPLC method; format: ADME, organism-based; parameters: route oral, dose 40 mg; conditions: in vivo
# [16] = Half life in human at 20 mg/kg, po measured up to 240 hrs by HPLC method; format: ADME, organism-based; conditions: in vivo
# [17] = AUC (0 to 10 hrs) in human at 40 mg, po BID cotreated with paclitaxel by HPLC method; format: ADME, organism-based; parameters: time < 10 hr, route oral, dose 40 mg; conditions: in vivo
# [18] = Drug excretion in human urine at 3.36 mg, po measured within 24 hrs; format: ADME, organism-based; conditions: in vivo
# [19] = Drug excretion in human urine assessed as maximum urinary excretion of pyridoxic-acid at 3.36 mg, po; format: ADME, tissue-based; conditions: in vivo
# [20] = Cmax in human at 3.36 mg, po measured for 7 days; format: ADME, organism-based; parameters: route oral, time 7 day, dose 3.36 mg; conditions: in vivo
# [21] = Drug metabolism in human assessed as pyridoxal-5-phosphate Tmax at 3.36 mg, po; format: ADME; conditions: in vivo
# [22] = Drug excretion in human assessed as time of maximum urinary excretion of pyridoxic-acid at 3.36 mg, po; format: ADME; conditions: in vivo
# [23] = Drug metabolism in human assessed as pyridoxal-5-phosphate Cmax at 3.36 mg, po; format: ADME; parameters: route oral, dose 3.36 mg; conditions: in vivo
# [24] = Tmax in human at 3.36 mg, po; format: ADME; conditions: in vivo
# [25] = Drug metabolism in human assessed as pyridoxal-5-phosphate Tmax at 4 mg, po; format: ADME; conditions: in vivo
# [26] = Drug metabolism in human assessed as pyridoxal-5-phosphate Cmax at 4 mg, po; format: ADME; parameters: route oral, dose 4 mg; conditions: in vivo
# [27] = Tmax in human at 4 mg, po; format: ADME; conditions: in vivo
# [28] = Drug excretion in human urine assessed as maximum urinary excretion of pyridoxic-acid at 4 mg, po; format: ADME; conditions: in vivo, 24 h
# [29] = Drug excretion in human urine assessed as time of maximum urinary excretion of pyridoxic-acid at 4 mg, po; format: ADME, tissue-based; conditions: in vivo
# [30] = Drug excretion in human urine at 4 mg, po measured within 24 hrs; format: ADME, organism-based; conditions: in vivo
# [31] = Cmax in human at 4 mg, po; format: ADME; parameters: route oral, dose 4 mg; conditions: in vivo
# [32] = Volume of distribution at steady state in human at 20 mg/kg, IM; format: ADME, organism-based; conditions: in vivo
# [33] = Cmax in human at 20 mg/kg, IM; format: ADME, organism-based; parameters: route […], dose 20 mg/kg; conditions: in vivo
# [34] = Bioavailability in human at 20 mpk, IM; format: ADME, organism-based; conditions: in vivo, dose 20 mg/kg
# [35] = Protein binding in human plasma at 20 mg/kg, IM; format: ADME, organism-based; conditions: read-out: PPB (converted)
# [36] = Tmax in human at 20 mg/kg, IM; format: ADME, organism-based; conditions: in vivo
# [37] = Half life in human at 20 mg/kg, IM; format: ADME, organism-based; conditions: in vivo
# [38] = Renal clearance in human at 20 mg/kg, IM; format: ADME, organism-based; conditions: in vivo
# [39] = Drug excretion in human at 20 mg/kg, IM measured for 24 hrs; format: ADME, organism-based; conditions: in vivo, read-out: Drug excretion
# [40] = Half life in human plasma at 37 mg/kg, po by HPLC method; format: ADME, organism-based
# [41] = Tmax in human erythrocytes at 37 mg/kg, po by HPLC method; format: ADME, organism-based, Erythrocyte
# [42] = Cmax in human plasma at 37 mg/kg, po by HPLC method; format: ADME, organism-based; parameters: route oral, dose 37 mg/kg
# [43] = Cmax in human erythrocytes at 37 mg/kg, po; format: ADME, organism-based, Erythrocyte; parameters: route oral, dose 37 mg/kg
# [44] = Half life in human erythrocytes at 37 mg/kg, po by HPLC method; format: ADME, organism-based, Erythrocyte
# [45] = AUC (0 to 24 hrs) in human plasma at 37 mg/kg, po by HPLC method; format: ADME, organism-based; parameters: time < 24 hr, route oral, dose 37 mg/kg; conditions: in vivo
# [46] = AUC (0 to 24 hrs) in human erythrocytes at 37 mg/kg, po by HPLC method; format: ADME, organism-based, Erythrocyte; parameters: time < 24 hr, route oral, dose 37 mg/kg
# [47] = Ratio of drug level in human erythrocytes to plasma at 20 mg/kg, iv measured over 1 hr; format: ADME, organism-based
# [48] = Tmax in human plasma at 37 mg/kg, po by HPLC method; format: ADME, organism-based
# [49] = Elimination half life in human at 20 mg/kg, iv measured over 1 hr; format: ADME, organism-based; conditions: in vivo, read-out: beta t1/2 (converted)
# [50] = Volume of distribution in human at 20 mg/kg, iv measured over 1 hr; format: ADME, organism-based; conditions: in vivo
# [51] = AUC (0 to 24 hrs) in human at 20 mg/kg, iv measured over 1 hr; format: ADME, organism-based; parameters: route intravenous, time 1 hrs, dose 20 mg/kg; conditions: in vivo
# [52] = AUC (0 to infinity) in human serum at 2 g, po; format: ADME, cell-free; parameters: route oral, time infinity, dose 2 g
# [53] = Half life in human at 2 g, po; format: ADME; conditions: in vivo
# [54] = Volume of distribution at steady state in human at 0.5 g, iv; format: ADME; conditions: in vivo
# [55] = Cmax in human serum at 2 g, po; format: ADME, cell-free; parameters: route oral, dose 2 g
# [56] = Total clearance in human at 0.5 g, iv; format: ADME; conditions: in vivo
# [57] = Drug excretion in human urine at 2 g, po measured within 24 hrs; format: ADME, organism-based; conditions: in vivo
# [58] = Non-renal clearance in human at 0.5 g, iv; format: ADME; conditions: in vivo
# [59] = Renal clearance in human at 0.5 g, iv; format: ADME; conditions: in vivo
# [60] = Cmax in human at 0.5 g, iv; format: ADME; parameters: route intravenous, dose 0.5 g; conditions: in vivo
# [61] = Half life in human at 0.5 g, iv; format: ADME; conditions: in vivo
# [62] = Tmax in human serum at 2 g, po; format: ADME
# [63] = Cmax in human at 2 g, po; format: ADME; parameters: route oral, dose 2 g; conditions: in vivo
# [64] = Tmax in human at 2 g, po; format: ADME; conditions: in vivo
# [65] = Protein binding in human plasma at 2 g, po; format: ADME, cell-free
# [66] = Oral bioavailability in human at 2 g; format: ADME, organism-based; conditions: in vivo
# [67] = Drug excretion in human urine at 0.5 g, iv measured within 24 hrs; format: ADME, organism-based; conditions: in vivo
molecule,measurement,setting,value
Cc1cc2c(C(C)C)c(O)c(O)c(C=O)c2c(O)c1-c1c(C)cc2c(C(C)C)c(O)c(O)c(C=O)c2c1O [GOSSYPOL],AUC(0-inf),[1],6.08 µM·h
same,AUC(0-inf),[2],29.2 µM·h
same,CL/F,[3],2.5 mL/min/kg
same,Tmax,[4],4.6 h
same,half-life at 5 ug/ml,[5],< 1 h
same,Tmax,[6],4.6 h
same,clearance,[7],0.833 mL/min/kg
same,CL,[7]; 0.5 mg/kg,0.83 mL/min/kg
same,half-life at 5 ug/ml,[8],< 1 h
same,Cmax,[9],1.75 µM
same,half-life at 5 ug/ml,[10],< 1 h
same,PPB,[11],63%
same,fraction unbound,[11]; read-out: PPB (converted),0.61
same,Cmax,[12],0.799 µM
same,half-life,[13],3.33 h
same,half-life,[14],4.55 h
same,Cmax,[15],1.27 µM
same,half-life,[16],133 h
same,AUC at 10 h,[17],6.81 µM·h
Cc1ncc(CO)c(C=O)c1O [PYRIDOXAL],Drug excretion,[18],1.2 µmol
same,Drug excretion,[19],1.6 µmol/h
same,Cmax,[20],0.28 µM
same,Tmax,[21],1 h
same,Time,[22],1 h
same,Cmax,[23],0.018 µM
same,Tmax,[24],0.5 h
Cc1ncc(CO)c(CO)c1O [PYRIDOXINE],Tmax,[25],3 h
same,Cmax,[26],0.03 µM
same,Tmax,[27],1 h
same,Drug excretion,[28],0.7 µmol/h
same,Time,[29],3 h
same,Drug excretion,[30],1.5 µmol
same,Cmax,[31],0.06 µM
[H]/N=C(/N)N[C@H]1[C@H](O)[C@@H](O)[C@H](O[C@@H]2O[C@@H](C)[C@](O)(C=O)[C@H]2O[C@@H]2O[C@@H](CO)[C@H](O)[C@@H](O)[C@@H]2NC)[C@@H](N/C(N)=N\[H])[C@@H]1O [STREPTOMYCIN],Vdss,[32],1.77 L/kg
same,Cmax,[33],43 µM
same,bioavailability,[34],80%
same,fraction unbound,[35],0.52
same,Tmax,[36],0.5 h
same,half-life,[37],5.3 h
same,CL renal,[38],30 mL/min
same,dose excreted at 24 h,[39],39%
O=Cc1c(O)cccc1OCc1ccc(C(=O)O)cc1 [TUCARESOL],half-life,[40],223 h
same,Tmax,[41],24 h
same,Cmax,[42],271 µM
same,Cmax,[43],2460 µM
same,half-life,[44],120 h
same,AUC,[45],62 µM·h
same,AUC(0-t) at 24 h,[46],579 µM·h
same,Kp at 1 h,[47],< 11.2
same,Tmax,[48],7.5 h
O=Cc1c(O)cccc1OCCCCC(=O)O [VELARESOL],half-life,[49],2.2 h
same,Vd,[50],0.067 L/kg
same,AUC,[51],5.18 µM·h
same,Kp at 1 h,[47],14.3
SPIRAMYCIN,AUC,[52],12 µM·h
same,t1/2,[53],6.23 h
same,Vdss,[54],5.5 L/kg
same,Cmax,[55],3.7 µM
same,CL,[56],1.14 L/min
same,Drug excretion,[57],4.4%
same,CL,[58],887 mL/min
same,CL,[59],144.2 mL/min
same,Cmax,[60],2.7 µM
same,t1/2,[61],5.54 h
same,Tmax,[62],3.3 h
same,Cmax,[63],2 µM
same,Tmax,[64],4 h
same,PPB,[65],48%
same,F,[66],10%
same,Drug excretion,[67],13.9%
